Reference: patent publication US12187696B2, “Urea motif containing compounds and derivatives thereof as antibacterial drugs” (Technische Universität München, priority 2016, dated 2025)
Values after ≈ are worked out from the molar mass of the structure shown. “Also recorded” adds a separate entry of the source.

Tests used:
[1] = system: Staphylococcus aureus VA409044; assay: Minimal inhibitory concentration (MIC) assay; format: cell-based; conditions: Staphylococcus aureus VA409044 (clinical isolate); B medium
[2] = system: Staphylococcus aureus VA402923; assay: Minimal inhibitory concentration (MIC) assay; format: cell-based; conditions: Staphylococcus aureus VA402923 (clinical isolate); B medium
[3] = system: Staphylococcus aureus IS050678; assay: Minimal inhibitory concentration (MIC) assay; format: cell-based; conditions: Staphylococcus aureus IS050678 (clinical isolate); B medium
S. aureus Mu50 = assay: Minimal inhibitory concentration (MIC) assay; format: cell-based; conditions: Staphylococcus aureus, B medium
Bacillus subtilis = assay: Minimal inhibitory concentration (MIC) assay; format: cell-based; conditions: LB medium
[4] = system: Staphylococcus aureus Bk97296; assay: Minimal inhibitory concentration (MIC) assay; format: cell-based; conditions: Staphylococcus aureus Bk97296 (clinical isolate); B medium
[5] = system: Staphylococcus aureus DSM18827; assay: Minimal inhibitory concentration (MIC) assay; format: cell-based; conditions: B medium
Plasma stability assay = format: in vitro ADME, mouse; conditions: 10 μM, 37° C., up to 6 h (360 min), LC-MS
Procedure: The in vitro stability was tested by a LC-MS based method. Mouse plasma was purchased from biowest (mouse plasma w/lithium heparin, sterile filtered S2162-010) and used as a 1:1 dilution with potassium phosphate buffer (0.1 M, pH 7.4). Final assay concentration of DMSO from compound stocks was 1%. AV1, a β-lactone with known low plasma stability, was used as positive control at a concentration of 50 μM. The compound stability test in plasma was initiated by the addition of 10 μM compound of interest (50 μM in the case of AV1) to 250 μL of diluted mouse plasma at 37° C. Directly after compound addition the reaction mixture was shortly mixed by vortexing and the first sample of 25 μL was withdrawn (time point 0 min). Every sample was quenched immediately by the addition 30 μL of pre-chilled acetonitrile. The reaction mixture was incubated at 37° C. with gentle shaking at 600 rpm. At certain time points (5, 10, 20, 30, 60, 120, 240, 360 min) additional samples (25 μL) were taken for every test compound, quenched as described and stored at −20° C. […] Quantitative LC-MS analysis was performed by LCQ-Fleet Ion Trap Mass Spectrometer equipped with an APCI ion source and a DionexHPLC system using a Waters Xbridge BEH130 C18 column (5 μM 4.6×100 mm). […] Plasma stability was determined in three independent experiments.

Pseudomonas aeruginosa = assay: Minimal inhibitory concentration (MIC) assay; format: cell-based; conditions: B medium
S. aureus NCTC 8325 = format: cell-based
[6] = system: Staphylococcus aureus Bk95395; assay: Minimal inhibitory concentration (MIC) assay; format: cell-based; conditions: Staphylococcus aureus Bk95395 (clinical isolate); B medium
[7] = system: Staphylococcus aureus VA402525; assay: Minimal inhibitory concentration (MIC) assay; format: cell-based; conditions: Staphylococcus aureus VA402525 (clinical isolate); B medium
[8] = system: Enterobacter cloacae subsp. Cloacae; assay: Minimal inhibitory concentration (MIC) assay; format: cell-based; conditions: B medium
[9] = system: Staphylococcus aureus VA417350; assay: Minimal inhibitory concentration (MIC) assay; format: cell-based; conditions: Staphylococcus aureus VA417350 (clinical isolate); B medium
[10] = system: Staphylococcus aureus VA418879; assay: Minimal inhibitory concentration (MIC) assay; format: cell-based; conditions: Staphylococcus aureus VA418879 (clinical isolate); B medium
[11] = system: Staphylococcus aureus NCTC8325; assay: Minimal inhibitory concentration (MIC) assay; format: cell-based; conditions: for MIC: Staphylococcus aureus NCTC8325, B medium
Procedure: Minimum inhibitory concentrations (MICs) represent the lowest concentration of sample that will inhibit the visible growth of a microorganism after overnight incubation, and was obtained by a 96 well plate-based assay (Thermo Scientific) with serial dilutions of the probes tested. […] Bacteria were diluted in fresh medium to a concentration of 10^5 CFU/mL. In the case of all other bacteria species tested, fresh media was inoculated 1/10000 and directly used for testing. Diluted bacterial cultures (99 μL) were added to various concentrations of probe (1 μL of the respective stock in DMSO). A growth control containing DMSO (1 μL) and cultivated medium (99 μL) and a sterile control containing fresh medium (100 μL) were run on every 96 well plate in triplicates. After incubation at 37° C. with gentle shaking (200 rpm) for 24 h, the dilution series was analysed for microbial growth, usually indicated by turbidity and/or a pellet of bacteria at the bottom of the well. The lowest concentration in the dilution series at which no growth of bacteria could be observed by eye was defined as the minimum inhibitory concentration (MIC) of the probe. MIC values were determined by three independent experiments with at least triplicate runs for each concentration. […] Both compounds were tested against various bacterial strains. […] The assay was performed as described above.

[12] = system: Mycobacterium tuberculosis H37Rv; assay: Minimal inhibitory concentration (MIC) assay; format: cell-based; conditions: 7H9 medium
[13] = system: Staphylococcus aureus IS050611; assay: Minimal inhibitory concentration (MIC) assay; format: cell-based; conditions: Staphylococcus aureus IS050611 (clinical isolate); B medium
Acinetobacter baumannii = assay: Minimal inhibitory concentration (MIC) assay; format: cell-based; conditions: B medium
Enterobacter aerogenes = assay: Minimal inhibitory concentration (MIC) assay; format: cell-based; conditions: Klebsiella aerogenes, B medium
[14] = biological target: T1, Signal peptidase IB enzyme (SpsB) (Staphylococcus aureus, UniProt P0A070); assay: SpsB FRET peptidase assay with membrane fraction; conditions: for activity of SpsB: 100 μM compound, SpsB-containing membrane fraction of S. aureus, DMSO treated control 1.8 A·U/s; for SpsB peptidase activity (in words): FRET assay, 100 μM, compared to DMSO treated control
T1 sequence (P0A070 1-191): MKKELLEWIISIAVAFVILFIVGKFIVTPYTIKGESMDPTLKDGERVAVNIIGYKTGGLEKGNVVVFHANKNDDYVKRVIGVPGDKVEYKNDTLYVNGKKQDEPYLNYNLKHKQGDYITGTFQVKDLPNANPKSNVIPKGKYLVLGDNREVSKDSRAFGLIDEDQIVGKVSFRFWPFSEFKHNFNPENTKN

Question: What does the source list for `O=C(Nc1ccc2c(c1)OC(F)(F)O2)Nc1ccc(Cl)c(C(F)(F)F)c1` [Example 4, 1-(4-Chloro-3-(trifluoromethyl)phenyl)-3-(2,2-difluorobenzo[d][1,3]dioxol-5-yl)urea]?
Answer: MIC [1]: 0.3 µM (≈ 0.118 µg/mL); MIC [2]: 0.3 µM (≈ 0.118 µg/mL); MIC [3]: 0.3 µM (≈ 0.118 µg/mL); MIC (S. aureus Mu50): 0.3 µM (≈ 0.118 µg/mL); MIC (Bacillus subtilis): 1 µM (≈ 0.395 µg/mL); MIC [4]: 0.3 µM (≈ 0.118 µg/mL); MIC [5]: 0.3 µM (≈ 0.118 µg/mL); stability in mouse plasma (Plasma stability assay): excellent stability in plasma for several hours; MIC (Pseudomonas aeruginosa): > 100 µM; resistance development on serial passaging (S. aureus NCTC 8325; S. aureus NCTC 8325, subinhibitory levels, 27 days, listed as PK/X17-1-150): did not induce resistance; also recorded: no resistant development; activity against S. aureus that developed resistance against sorafenib (S. aureus NCTC 8325; preliminary results): still active; MIC [6]: 0.3 µM (≈ 0.118 µg/mL); MIC [7]: 0.3 µM (≈ 0.118 µg/mL); MIC [8]: > 100 µM; MIC [9]: 0.3 µM (≈ 0.118 µg/mL); MIC [10]: 0.3 µM (≈ 0.118 µg/mL); MIC [11]: 0.3 µM (≈ 0.118 µg/mL); IC50 ([11]; Staphylococcus aureus, NCTC8325, inhibition of bacterial growth of S. aureus NCTC 8325, obtained by MIC assay): 0.3 µM; MIC [12]: 2 µM (≈ 0.789 µg/mL); MIC [13]: 0.3 µM (≈ 0.118 µg/mL); MIC (Acinetobacter baumannii): 10 µM (≈ 3.95 µg/mL); MIC (Enterobacter aerogenes): > 100 µM; activity of SpsB [14]: 4.3 A·U/s; SpsB peptidase activity (in words) ([14]; listed as PK/X17-1-150): increased SpsB peptidase activity; also recorded: stimulates peptidase activity

Question: For `CNC(=O)c1cc(Oc2ccc(NC(=O)Nc3ccc(Cl)c(C(F)(F)F)c3)cc2)ccn1` [Sorafenib, reference compound], which MIC [1] is on record?
Answer: The MIC was 3 µM (≈ 1.39 µg/mL).

Question: And the MIC [2]?
Answer: Its MIC is 5 µM (≈ 2.32 µg/mL).

Question: What about the MIC [3] of the same compound?
Answer: The MIC was 5 µM (≈ 2.32 µg/mL).

Question: What about the MIC (S. aureus Mu50) of the same compound?
Answer: Its MIC is 3 µM (≈ 1.39 µg/mL).

Question: And the MIC (Bacillus subtilis)?
Answer: Its MIC is 5 µM (≈ 2.32 µg/mL).

Question: What about the MIC [4] of the same compound?
Answer: The MIC was 5 µM (≈ 2.32 µg/mL).

Question: What about the MIC [5] of the same compound?
Answer: Its MIC is 3 µM (≈ 1.39 µg/mL).

Question: What about the “stability in mouse plasma” value (Plasma stability assay) of the same compound?
Answer: The value was “excellent stability in plasma for several hours”.

Question: And the MIC (Pseudomonas aeruginosa)?
Answer: The MIC was greater than 100 µM.

Question: And the “first signs of lower sensitivity” value (S. aureus NCTC 8325; serial passaging of S. aureus)?
Answer: Its value is no more than 5 days.

Question: And the “increase of minimal inhibitory concentration (factor)” value (S. aureus NCTC 8325; serial passaging, within the first 10 days)?
Answer: Its value is 40.

Question: And the MIC [6]?
Answer: Its MIC is 5 µM (≈ 2.32 µg/mL).

Question: What about the MIC [7] of the same compound?
Answer: Its MIC is 5 µM (≈ 2.32 µg/mL).

Question: What about the MIC [8] of the same compound?
Answer: The MIC was greater than 100 µM.

Question: What about the MIC [9] of the same compound?
Answer: The MIC was 5 µM (≈ 2.32 µg/mL).

Question: And the MIC [10]?
Answer: Its MIC is 5 µM (≈ 2.32 µg/mL).

Question: What about the MIC [11] of the same compound?
Answer: The MIC was 3 µM (≈ 1.39 µg/mL).

Question: And the MIC [12]?
Answer: Its MIC is 25 µM (≈ 11.6 µg/mL).

Question: What about the MIC [13] of the same compound?
Answer: The MIC was 3 µM (≈ 1.39 µg/mL).

Question: What about the MIC (Acinetobacter baumannii) of the same compound?
Answer: The MIC was greater than 100 µM.

Question: What about the MIC (Enterobacter aerogenes) of the same compound?
Answer: The MIC was greater than 100 µM.

Question: And the “activity of SpsB” value [14]?
Answer: Its value is 2.6 A·U/s.

Question: And the “SpsB peptidase activity (in words)” value [14]?
Answer: The value was “increased SpsB peptidase activity; also recorded: stimulates peptidase activity”.
